What was measured:
Test in all cases: pTyr-Var library bacterial peptide display kinase screen (enrichment scores)
[1] = tested on: EPHB1 kinase domain; type: biochemical, human; conditions: for Screen: sheet EPHB1, effect of the variant peptide relative to its reference peptide in the pTyr-Var library screen (enrichment scores)
[2] = target: T1, c-Abl kinase domain (Mus musculus, UniProt P00520); type: biochemical;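 also: log2 fold change in enrichment of variant over reference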
T1 sequence (P00520 242-493 limits assumed): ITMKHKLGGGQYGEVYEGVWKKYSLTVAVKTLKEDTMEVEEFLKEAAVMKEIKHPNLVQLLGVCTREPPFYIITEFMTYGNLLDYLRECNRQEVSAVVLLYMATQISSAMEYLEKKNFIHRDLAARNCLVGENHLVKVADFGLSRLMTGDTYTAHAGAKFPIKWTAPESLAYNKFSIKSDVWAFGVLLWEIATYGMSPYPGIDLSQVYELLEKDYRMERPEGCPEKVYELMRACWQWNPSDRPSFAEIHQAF

[3] = target: c-Src kinase domain (Homo sapiens, UniProt P12931); type: biochemical; conditions: for Screen: sheet "Src";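 as to screen: log2 fold change in enrichment of variant over reference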
[4] = tested on: Fer kinase domain; type: biochemical, mouse; conditions: sheet "Fer";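 also: log2 fold change in enrichment of variant over reference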
[5] = fig5-data2, sheet "Abl", Screen for the variant/reference peptide pair, pTyr-Var library
[6] = variant peptide versus its reference peptide in the pTyr-Var library screen
[7] = value of the variant peptide against its reference peptide in the pTyr-Var library screen with Fer
[8] = sheet "Abl", effect of variant peptide relative to its reference peptide in pTyr-Var library screen (enrichment)
[9] = variant peptide relative to its reference peptide, pTyr-Var library screen enrichment
[10] = effect of the variant peptide relative to its reference peptide in the pTyr-Var library screen

PEADKYHLTFA [FGG_Y300_R301H_YF]
Screen [1]: 0.9471

DTLASYLDKVR [KRT12_Y139_R135T]
Screen [2, 5]: -1.083

LNSFIYSLRNR [OR1A1_Y288_P285S]
Screen [3, 6]: 0.8467 | Screen [2, 5]: 0.03527

QITQVYGFFHE [PPP2CA_Y127_D131H_YF]
Screen [3, 6]: 0.1908

FDAHIYEGCVI [PRKCD_Y64_R67C]
Screen [3, 6]: 0.6982 | Screen [4, 7]: 2.331

SVCPDYDLCSI [SQSTM1_Y148_V153I]
Screen [2, 8]: -2.483 | Screen [4, 9]: 0.6845

QFFQGYFNNNF [ZNF236_Y644_S643G]
Screen [2, 8]: 3.465

ECIEFYELDKK [PMM2_Y145_R141C]
Screen [2, 5]: 0.4752

KGEDFYCVTFH [FHL1_Y149_C153Y_YF]
Screen [2, 5]: -1.856 | Screen [4, 7]: 1.626

RPIEVYLCPEE [E2F3_Y349_G344R]
Screen [3, 10]: 1.834

NFGTNYRVGSS [CPO_Y278_K273N_YF]
Screen [2, 5]: 0.7292

PLDGEYFTRQI [TP53_Y327_L330R]
Screen [3, 6]: -2.245 | Screen [2, 8]: 1.752

QDEPTYARSSK [PEAK1_Y616_H611Q]
Screen [2, 5]: 1.067

PAGSGYPAFLG [ATP6V1A_Y374_D371G_YF]
Screen [1]: -1.134

RNDRVYQPLRD [CD3D_Y149_Q147R]
Screen [3, 10]: -1.537

YDDGKYVYVVT
Enrichment score (mean) ([3]; pTyr-Var library screen with c-Src, sheet "Src substrates": annotated Src substrate sites, 11-residue peptide SITE_+/-5_AA, mean): 1.305

LTQRTYMLENA [GPAA1_Y49_S51L]
Screen [2, 5]: -1.886

QHVPDYRQNGF [PCDHGB6_Y889_V893G_YF]
Screen [2, 5]: -1.654

IMITGYLLLFR [INSR_Y87_D86G]
Screen [2, 5]: 0.04202

QRRFLYFFSFL [PTEN_Y176_V175L_YF]
Screen [4, 7]: -0.3574

WANPEYTGGFK [TTN_Y22309_K22306N]
Screen [2, 8]: -1.867

PLDGEYLTLQI [TP53_Y327_F328L]
Screen [3, 6]: -1.75

VNFGAYINDFN [GLB1_Y488_K493N_YF]
Screen [2, 5]: 0.7194

GRIHSYRGHLW [VHL_Y112_R107G]
Screen [3, 6]: -3.383 | Screen (variant relative to reference peptide, measured in the pTyr-Var library screen) ([1]; sheet "EPHB1", variant seq vs reference seq, bacterial peptide display enrichment): -1.934

CGTPDYIAREI [PRKCG_Y521_P524R]
Screen [2, 5]: 0.3032

CTTIRYNFMCN [TP53_Y234_H233R_YF]
Screen [2, 8]: 1.107

CEAMEYPESKQ [BTK_Y511_L512P]
Screen [2, 5]: -1.088

AVRFIYTIDGS [DCX_Y105_G100A_YF]
Screen [3, 10]: 0.6298

APRKVYDTQDD [ZFPL1_Y215_R218Q]
Screen [2, 8]: 3.612

SKNSKYNAGST [PSEN1_Y315_E318G]
Screen [2, 5]: -0.477

TGQEDYDRLRP [RAC1_Y64_A59T]
Screen [2, 5]: -1.28

EWQQIYTFDSG [JUP_Y20_T19I_YF]
Screen [3, 10]: 0.7952 | Screen [4, 7]: 3.242

LTDTVYSSSSA [OR4C12_Y71_I67T]
Screen [3, 6]: -0.5241 | Screen [4, 7]: 0.3207

EDKSIYRRGAC [PRKCI_Y125_R130C]
Screen [2, 5]: 0.9369

CKLVDYDSARH [BIN1_Y150_R145C]
Screen [2, 5]: 0.9945

VTAALYGCLFE [BTD_Y536_R538C_YF]
Screen [3, 10]: -0.3028 | Screen [2, 5]: -0.06766

IRRIAYEFVEM [ADA_Y84_K80R]
Screen [4, 7]: -0.04574

NHFKIYNPCAE [PTEN_Y68_L70P_YF]
Screen [3, 6]: -2.716 | Screen [2, 5]: 0.7094

ATRDVYNPFET [SCAMP3_Y41_L38R]
Screen [3, 6]: -1.143

STEAIYWRFSK [SH3PXD2B_Y42_R43W_YF]
Screen [3, 6]: 2.709

CFCSWYRGWAP [TIMP3_Y195_G190C_YF]
Screen [3, 6]: 2.542 | Screen [4, 9]: 2.823

RGDTVYTVNCM [KBTBD13_Y404_R408C]
Screen [3, 10]: -0.9987

ELTSVYGSRAR [SENP1_Y349_D350G]
Screen [3, 6]: 0.9781

EKGEEYGGGGG [TUBA1A_Y451_E447K]
Screen [2, 8]: 1.685

NTGNFYDLFGG [PTPN11_Y63_D61N_YF]
Screen [3, 6]: 0.1419 | Screen [4, 7]: 0.7498

TAGFIYEKWEI [TEC_Y360_S359I]
Screen [3, 6]: 3.208 | Screen [4, 9]: 3.032

EGWQVYRLGTR [MISP_Y95_A99T]
Screen [3, 10]: -0.2875

VDGFVYKLHPS [GCK_Y413_S411F]
Screen [3, 10]: -2.399

EEQFFYEKAIL [BCCIP_Y257_E254Q]
Screen [2, 5]: 0.5588 | Screen [4, 7]: -0.4348

PFRFIYMAVQH [PTPN11_Y515_Q510P_YF]
Screen [3, 6]: -0.7023

TSPALYRLDLD [TRIL_Y352_A347T]
Screen [3, 6]: -0.36 | Screen [2, 8]: -0.2355

EVASVYESFQP [MAVS_Y92_Q93E_YF]
Screen [3, 10]: 0.01447 | Screen [4, 7]: 1.389

NTGFFYDLFGG [PTPN11_Y63_D61Y_YF]
Screen [3, 6]: -0.6353 | Screen [4, 9]: -1.238

DQVEQYNKELE [LMNA_Y259_K260N]
Screen [2, 5]: -0.1463
